Data on one compound can be found in PMC8958504 (Journal of Medicinal Chemistry, 2022).

Molecules are shown by their SMILES. Entries after “also recorded” stand apart in the source; their conditions may differ.

This test deals with adult mice NSCs. In words: Neurogenic studies in SGZ-derived neurospheres. It is filed as cell-based, mouse. Particulars: 10 μM. Here is the method:
Adult mice NSCs were isolated from SGZ of the dentate gyrus of the hippocampus and grown as free-floating neurospheres (NS).[72],[78] The neurogenic potential of each compound was determined using fluorescence confocal microscopy by quantifying the expression of two well-known neuronal markers: human β-III-tubulin (TuJ-1 clone) and microtubule-associated protein 2 (MAP-2). TuJ-1 is expressed in immature neurons, whereas the expression of MAP-2 indicates a consolidated mature neuronal stage.[79] Given that neurogenesis involves not only the proliferation of NSC but also the migration of newly generated cells, the greatest migration distance promoted by each compound was also measured (Figure 8).
Adult male C57BL/6 mice (3 months old) were used in order to determine neurogenesis activity. […] DAPI staining was used as a nuclear marker. Fluorescent representative images were acquired with a Nikon fluorescence microscope 90i coupled to a digital camera Qi. The microscope configuration was adjusted to produce the optimum signal-to-noise ratio. […] Quantification was undertaken using the image analySIS software (Soft Imaging System Corp., Münster, Germany) and normalized to total nuclei (DAPI-stained). The intensity of immunostaining of neurites from TuJ1-labeled cells and the number of MAP-2-positive cells were estimated from nine neurospheres per condition over three independent experiments. The outgrowth of the neurosphere cells was examined under a phase-contrast microscope and the farthest distance of cell migration was calculated from the edge of the sphere. At least 10 plated neurospheres per treatment were analyzed.

On to `C#CCn1nc(/C=C/c2ccc(OC)cc2)oc1=O` [4e, 5-[(E)-2-(4-Methoxyphenyl)ethenyl]-3-(prop-2-yn-1-yl)-1,3,4-oxadiazol-2(3H)-one], for which the “TuJ-1 and MAP-2 marked cells” value is “clearly increased; also recorded: highest expression of young cells (TuJ-1) and mature neurons (MAP-2)”; the cell migration distance result is listed as “extended; also recorded: greatest distance of cell migration”.
